According to ChEMBL document CHEMBL1201862, “PubChem BioAssay data set” (2004):
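Cultured in 96-well plates, cells were exposed to test compound for 48 hours across five concentrations. The concentration for 50% growth inhibition is given as GI50.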 The source made the active and inactive calls. Rule as the data show it: active = GI50 up to about 1.1 µM and inactive = higher.

Assays:
Assay in all cases: NCI-60 cell line screen, 48 h
UACC-62 = tested on: UACC-62
OVCAR-4 = tested on: OVCAR-4
PC-3 = tested on: PC-3
T47D = tested on: T47D
MCF7 = tested on: MCF7
Malme-3M = tested on: Malme-3M
NCI-H23 = tested on: NCI-H23
SK-OV-3 = tested on: SK-OV-3
SNB-75 = tested on: SNB-75
HT-29 = tested on: HT-29
HCT-116 = tested on: HCT-116
NCI-H522 = tested on: NCI-H522
M14 = tested on: M14
SF-268 = tested on: SF-268
SK-MEL-5 = tested on: SK-MEL-5
SF-539 = tested on: SF-539
SF-295 = tested on: SF-295
OVCAR-3 = tested on: OVCAR-3
MDA-MB-231 = tested on: MDA-MB-231
U-251 = tested on: U-251

Structure (SMILES)	GI50 (UACC-62)	GI50 (OVCAR-4)	GI50 (PC-3)	GI50 (T47D)	GI50 (MCF7)	GI50 (Malme-3M)	GI50 (NCI-H23)	GI50 (SK-OV-3)	GI50 (SNB-75)	GI50 (HT-29)	GI50 (HCT-116)	GI50 (NCI-H522)	GI50 (M14)	GI50 (SF-268)	GI50 (SK-MEL-5)	GI50 (SF-539)	GI50 (SF-295)	GI50 (OVCAR-3)	GI50 (MDA-MB-231)	GI50 (U-251)
O=C1OC(CCCN2CCCCC2)(c2ccccc2)CC12CCCC2 (stereo not given)	61.4 µM (inactive)	97.9 µM (inactive)	> 100 µM (inactive)	> 100 µM (inactive)	58.2 µM (inactive)	35.6 µM (inactive)	> 89.7 µM (inactive)	> 100 µM (inactive)	23 µM (inactive)	37.3 µM (inactive)	73.1 µM (inactive)	> 100 µM (inactive)	17.7 µM (inactive)	> 100 µM (inactive)	18.7 µM (inactive)	49.1 µM (inactive)	> 84.9 µM (inactive)	> 100 µM (inactive)	> 75.9 µM (inactive)	> 100 µM (inactive)
CS(=O)(=O)C(=Cc1ccccc1Cl)S(C)(=O)=O	24.4 µM (inactive)	> 100 µM (inactive)	> 100 µM (inactive)	> 100 µM (inactive)	> 40.3 µM (inactive)	> 100 µM (inactive)	> 100 µM (inactive)	> 100 µM (inactive)	> 100 µM (inactive)	> 100 µM (inactive)	31.1 µM (inactive)	> 100 µM (inactive)	> 80.2 µM (inactive)	> 100 µM (inactive)	> 92 µM (inactive)	> 100 µM (inactive)	> 46.5 µM (inactive)	> 100 µM (inactive)	> 100 µM (inactive)	> 100 µM (inactive)
CC1(C)C(N2CCOCC2)CS1(=O)=O (stereo not given)	> 10 µM (inactive)	> 10 µM (inactive)	> 10 µM (inactive)	> 10 µM (inactive)	> 10 µM (inactive)	> 10 µM (inactive)	> 10 µM (inactive)	> 10 µM (inactive)	4.98 µM (inactive)	> 10 µM (inactive)	> 10 µM (inactive)	> 10 µM (inactive)	> 10 µM (inactive)	> 10 µM (inactive)	> 10 µM (inactive)	> 10 µM (inactive)	> 10 µM (inactive)	> 10 µM (inactive)	> 10 µM (inactive)	> 10 µM (inactive)
NC(=S)NS(=O)(=O)c1ccc(Cl)cc1	> 100 µM (inactive)	> 100 µM (inactive)	> 100 µM (inactive)	> 100 µM (inactive)	> 100 µM (inactive)	> 100 µM (inactive)	> 100 µM (inactive)	> 100 µM (inactive)	> 100 µM (inactive)	> 100 µM (inactive)	> 100 µM (inactive)	> 100 µM (inactive)	> 100 µM (inactive)	> 100 µM (inactive)	> 100 µM (inactive)	> 100 µM (inactive)	> 100 µM (inactive)	> 100 µM (inactive)	> 100 µM (inactive)	> 100 µM (inactive)
Cc1c2cc[n+](CCN3CCCCC3)cc2c(C)c2c1[nH]c1ccc(O)cc12	5.47 µM (inactive)	1.13 µM (inactive)	7.96 µM (inactive)	2.82 µM (inactive)	1.76 µM (inactive)	2.39 µM (inactive)	5.46 µM (inactive)	3.02 µM (inactive)	0.647 µM (active)	8 µM (inactive)	2.58 µM (inactive)	1.99 µM (inactive)	9.27 µM (inactive)	1.4 µM (inactive)	2.54 µM (inactive)	3.45 µM (inactive)	1.47 µM (inactive)	6.05 µM (inactive)	9.93 µM (inactive)	0.8 µM (active)
O=C1CCCc2cc3c(cc21)CC1(C3)Cc2cc3c(cc2C1)C(=O)CCC3	0.531 µM (active)	4.43 µM (inactive)	1.24 µM (inactive)	9.48 µM (inactive)	0.484 µM (active)	0.798 µM (active)	2.2 µM (inactive)	3.52 µM (inactive)	2.2 µM (inactive)	0.743 µM (active)	0.706 µM (active)	0.679 µM (active)	0.536 µM (active)	3.37 µM (inactive)	0.532 µM (active)	1.12 µM (active)	0.923 µM (active)	1.57 µM (inactive)	3.16 µM (inactive)	1.64 µM (inactive)
